Test results from patent US12472178B2, “Amorphous solid dispersions” (INTRA-CELLULAR THERAPIES, INC., priority 2016, dated 2025).

What was measured:
[1] = Preliminary screen of lyophilized dispersions by XRPD and appearance; format: physicochemical; settings: ITI-007 free base dispersions, as generated
Method: X-ray powder diffraction (XRPD): The X-ray powder diffraction studies are performed using a PANalytical X′Pert PRO MPD diffractometer using an incident beam of Cu radiation produced using an Optix long, fine-focus source. An elliptically graded multilayer mirror is used to focus Cu Kα X-ray radiation through the specimen and onto the detector. Prior to analysis, a silicon specimen is analyzed to verify the observed position of the Si (111) peak (consistent with the NIST-certified position, NIST SM 640e). A specimen of the sample is sandwiched between 3-micron thick films and analyzed in transmission geometry. A beam-stop, short antiscatter extension, and antiscatter knife edge is used to minimize the background generated by the air. Soller slits for the incident and diffracted beams are used to minimize broadening from axial divergence. Diffraction patterns are collected using a scanning position-sensitive detector (X′Celerator) located 240 mm from the specimen. Data Collector software v. 2.2b is used for analysis.
Solutions are initially frozen in a dry ice/acetone bath, and then placed in a freeze dryer with the shelf pre-cooled to −75° C. […]
Solid dispersions obtained from Example 1 are first evaluated by XRPD to determine if they are amorphous. […]
The same excipients are evaluated as described in Example 1.

[2] = Glass transition temperature by mDSC; format: physicochemical; settings: ITI-007 free base dispersions; Yes/No
[3] = Stability of solutions in 2,2,2-trifluoroethanol; format: physicochemical; settings: solutions in TFE
H1 histaminergic = H1 histaminergic (Homo sapiens, UniProt P35367); settings: cited from earlier work
5-HT2C = target: T1, 5-HT2C (Homo sapiens, UniProt P28335); settings: cited from earlier work
T1 sequence (P28335 33-458): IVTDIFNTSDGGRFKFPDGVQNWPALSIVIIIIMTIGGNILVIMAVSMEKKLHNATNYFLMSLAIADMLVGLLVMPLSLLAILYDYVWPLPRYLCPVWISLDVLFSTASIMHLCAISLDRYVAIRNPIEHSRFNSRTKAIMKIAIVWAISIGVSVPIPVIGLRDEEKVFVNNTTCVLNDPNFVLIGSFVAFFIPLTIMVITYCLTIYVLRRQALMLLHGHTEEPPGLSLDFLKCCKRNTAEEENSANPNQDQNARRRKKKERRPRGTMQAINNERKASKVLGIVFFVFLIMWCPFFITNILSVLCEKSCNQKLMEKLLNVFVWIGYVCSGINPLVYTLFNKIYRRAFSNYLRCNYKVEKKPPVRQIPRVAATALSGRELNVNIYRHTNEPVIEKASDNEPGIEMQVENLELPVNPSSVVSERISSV

muscarinic receptors = settings: cited from earlier work
[4] = free base form; cited from earlier work
[5] = amorphous form compared with the crystalline form; cited from earlier work

Chain of H1 histaminergic (P35367 whole entry): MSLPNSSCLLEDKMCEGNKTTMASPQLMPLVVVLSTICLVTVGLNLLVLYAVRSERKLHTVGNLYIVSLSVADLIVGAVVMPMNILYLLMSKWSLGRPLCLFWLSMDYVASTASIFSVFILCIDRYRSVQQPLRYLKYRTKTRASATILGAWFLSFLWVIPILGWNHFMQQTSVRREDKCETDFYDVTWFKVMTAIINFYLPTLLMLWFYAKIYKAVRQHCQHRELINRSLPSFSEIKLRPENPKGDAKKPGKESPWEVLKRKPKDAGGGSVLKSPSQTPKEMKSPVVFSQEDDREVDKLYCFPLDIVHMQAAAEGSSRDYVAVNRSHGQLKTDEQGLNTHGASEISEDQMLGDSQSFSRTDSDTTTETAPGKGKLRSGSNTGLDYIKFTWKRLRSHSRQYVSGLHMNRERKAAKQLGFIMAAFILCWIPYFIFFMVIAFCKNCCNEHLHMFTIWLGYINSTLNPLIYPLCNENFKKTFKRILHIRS

X-ray Amorphous Solids? [1]	Tg > 75° C. [2]	SMILES	stability of solution [3]	binding (H1 histaminergic)	binding (5-HT2C)	binding (muscarinic receptors)	solubility in water [4]	bioavailability [5]
No	No	CN1CCN2c3c(cccc31)[C@@H]1CN(CCCC(=O)c3ccc(F)cc3)CC[C@@H]12 [ITI-007, 1-(4-fluoro-phenyl)-4-((6bR,10aS)-3-methyl-2,3,6b,9,10,10a-hexahydro-1H,7H-pyrido[3′,4′:4,5]pyrrolo[1,2,3-de]quinoxalin-8-yl)-butan-1-one]	rapidly discolor due to decomposition of the active	negligible binding	negligible binding	negligible binding	poor solubility	
		CO/N=C(\C(=O)N[C@@H]1C(=O)N2C(C(=O)OC(C)OC(C)=O)=C(COC(N)=O)CS[C@H]12)c1ccco1 (some centres unmarked) [Cefuroxime axetil]						higher bioavailability
